≈ marks a conversion by molar mass, not a printed value. Calls of active or inactive are those of the source. The calls are words filed in the database; no cut-off is given here.
What was measured:
[1] = Aqueous solubility of compound at 3 mg incubated for 24 hrs under shaking condition by RP-HPLC analysis; format: physicochemical; details: water
[2] = Solubility of compound in PBS buffer at pH 7.4 at 3 mg incubated for 24 hrs under shaking condition by RP-HPLC analysis; format: physicochemical
[3] = Lipophilicity, logP of compound by RP-HPLC analysis; format: physicochemical
[4] = Protein binding in plasma (unknown origin) assessed as unbound fraction at 2 uM incubated for 4 hrs under shaking condition by rapid equilibrium dialysis method; format: ADME, cell-free
[5] = Stability in human plasma assessed as parent compound remaining at 1 uM incubated for 24 hrs in presence of NADPH by LC-MS/MS analysis; format: ADME, cell-free; details: read-out: Stability
[6] = target: hERG (Homo sapiens, UniProt Q12809); assay: Inhibition of hERG expressed in HEK293 cells at 10 uM incubated for 5 mins by QPatch automated patch-clamp technique relative to control; format: toxicity, cell-based; details: HEK293 cells that express hERG
[7] = Cmax in Sprague-Dawley rat at 50 mg/kg, po measured for 1440 mins by LC-MS/MS analysis; format: ADME, organism-based; parameters: time 1440 min, dose 50 mg/kg, route po; details: in vivo
[8] = AUC (0 to infinity) in Sprague-Dawley rat at 5 mg/kg, iv measured for 1440 mins by LC-MS/MS analysis; format: ADME, organism-based; parameters: dose 5 mg/kg, time 1440 min, route iv; details: in vivo
[9] = Half life in Sprague-Dawley rat at 50 mg/kg, po measured for 1440 mins by LC-MS/MS analysis; format: ADME, organism-based; details: in vivo
[10] = Volume of distribution at steady state in Sprague-Dawley rat at 50 mg/kg, po measured for 1440 mins by LC-MS/MS analysis; format: ADME, organism-based; details: in vivo, 24 h
[11] = Volume of distribution at steady state in Sprague-Dawley rat at 5 mg/kg, iv measured for 1440 mins by LC-MS/MS analysis; format: ADME, organism-based; details: in vivo, read-out: Vdss
[12] = Toxicity in immunocompetent BALB/c mouse assessed as reduction in body weight at 30 mg/kg, po measured after 3 days; format: organism-based; details: in vivo, 72 h, time 3 day
[13] = tested on: CT26; assay: Antitumor activity against mouse CT26 cells implanted in naive BALB/c mouse assessed as tumor growth regression at 20 mg/kg, po administered once every 5 days and measured after 30 days by digital caliper analysis relative to control; format: functional; details: time 30 day
[14] = tested on: CT26; assay: Immunological memory derived antitumor activity against mouse CT26 cells implanted in naive BALB/c mouse assessed as suppression of tumor growth at 20 mg/kg, po administered once every 5 days for 23 days starting from day 8 followed by reinoculation of cells into mouse on day 61 and measured for 50 days; format: functional; details: time 50 day
[15] = tested on: 4T1-Luc; assay: Antitumor activity against mouse 4T1-Luc cells implanted in naive BALB/c mouse assessed as tumor growth inhibition at 20 mg/kg, po administered once every 5 days and measured after 15 days by digital caliper analysis; format: functional, organism-based; details: time 15.0 day
[16] = tested on: CT26; assay: In vivo activation of STING in naive BALB/c mouse implanted with mouse CT26 cells assessed as increase in IFN-gamma level in plasma at 20 mg/kg, po administered as single dose and measured after 4 hrs by ELISA; format: functional, organism-based
[17] = tested on: MC-38; assay: In vivo activation of STING in naive […] mouse implanted with mouse MC38 cells assessed as increase in IFN-gamma level in plasma at 30 mg/kg, po administered as single dose and measured after 4 hrs by ELISA; format: functional, organism-based
[18] = tested on: Mus musculus; assay: Immunostimulatory activity in naive […] mouse implanted with mouse MC38 cells assessed as increase in CD8 T cells in spleen at 30 mg/kg, po by FACS analysis; format: functional, organism-based; details: MC-38
[19] = tested on: Mus musculus; assay: Immunostimulatory activity in naive […] mouse implanted with mouse MC38 cells assessed as increase in NKT cells in spleen at 30 mg/kg, po by FACS analysis; format: functional, organism-based; details: MC-38
[20] = tested on: Mus musculus; assay: Immunostimulatory activity in naive […] mouse implanted with mouse MC38 cells assessed as increase in CD69-positive CD8 T cells in spleen at 30 mg/kg, po by FACS analysis (reference value: 8.9 %); format: functional, MC-38
[21] = tested on: Mus musculus; assay: Immunostimulatory activity in naive […] mouse implanted with mouse MC38 cells assessed as increase in CD69-positive NK cells in spleen at 30 mg/kg, po by FACS analysis (reference value: 4.7%); format: functional, MC-38
[22] = tested on: Stimulator of interferon genes protein (Homo sapiens), Q86WV6 [UNDEFINED MUTATION]; assay: Binding affinity to recombinant human STING H232 variant expressed in Escherichia coli BL21 (DE3) assessed as thermal stabilization by measuring change in melting temperature at 2 mM incubated for 30 mins by SYPRO orange dye based differential scanning fluorimetry assay
[23] = target: T1, Stimulator of interferon genes protein (Homo sapiens, UniProt Q86WV6); assay: Binding affinity to recombinant human STING H232 variant expressed in Escherichia coli BL21 (DE3) assessed as dissociation constant by single cycle SPR analysis
Target sequence in this assay (Q86WV6 whole entry, looked up, stated change not applied): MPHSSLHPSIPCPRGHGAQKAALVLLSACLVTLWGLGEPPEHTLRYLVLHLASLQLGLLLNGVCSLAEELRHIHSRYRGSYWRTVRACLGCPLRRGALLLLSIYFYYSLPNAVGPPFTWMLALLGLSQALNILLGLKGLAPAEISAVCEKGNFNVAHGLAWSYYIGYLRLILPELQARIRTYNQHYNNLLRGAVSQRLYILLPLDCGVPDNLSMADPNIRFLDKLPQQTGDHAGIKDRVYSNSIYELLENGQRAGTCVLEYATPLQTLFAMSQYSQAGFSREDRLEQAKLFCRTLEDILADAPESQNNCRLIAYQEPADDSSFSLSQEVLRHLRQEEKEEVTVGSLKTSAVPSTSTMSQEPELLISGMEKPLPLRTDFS

[24] = tested on: Stimulator of interferon genes protein (Homo sapiens), Q86WV6 [UNDEFINED MUTATION]; assay: Binding affinity to recombinant human STING AQ variant expressed in Escherichia coli BL21 (DE3) assessed as thermal stabilization by measuring change in melting temperature at 0.1 mM incubated for 30 mins by SYPRO orange dye based differential scanning fluorimetry assay
[25] = target: T1, Stimulator of interferon genes protein; assay: Agonist activity at STING in cGAS knockout human THP-1 cells harboring IRF-inducible luciferase reporter construct assessed as increase in relative fluorescence unit incubated for 12 hrs by Quanti-luc reagent based assay; format: cell-based
Target sequence in this assay (Q86WV6 whole entry): as the sequence (Q86WV6 whole entry, looked up, stated change not applied) above

[26] = target: T1, Stimulator of interferon genes protein; assay: Agonist activity at STING in human THP-1 cells assessed as increase in CXCL10 mRNA expression at 10 uM measured after 3 hrs by qRT-PCR analysis; format: cell-based; details: filed as agonist
Target sequence in this assay (Q86WV6 whole entry): as the sequence (Q86WV6 whole entry, looked up, stated change not applied) above

[27] = target: T1, Stimulator of interferon genes protein; assay: Agonist activity at STING in human THP-1 cells harboring IRF-inducible luciferase reporter construct assessed as increase in TBK1 phosphorylation measured after 3 hrs by Western blot analysis; format: cell-based; details: filed as agonist, dose 10-50 µM, DDE = dose-dependent effect
Target sequence in this assay (Q86WV6 whole entry): as the sequence (Q86WV6 whole entry, looked up, stated change not applied) above

[28] = target: T1, Stimulator of interferon genes protein; assay: Agonist activity at STING in human THP-1 cells harboring IRF-inducible luciferase reporter construct assessed as increase in IRF3 phosphorylation measured after 3 hrs by Western blot analysis; format: cell-based; details: filed as agonist, dose 10-50 µM, DDE = dose-dependent effect
Target sequence in this assay (Q86WV6 whole entry): as the sequence (Q86WV6 whole entry, looked up, stated change not applied) above

[29] = target: T1, Stimulator of interferon genes protein; assay: Agonist activity at STING in human THP-1 cells harboring IRF-inducible luciferase reporter construct assessed as increase in IRF3 phosphorylation at 50 uM measured after 3 hrs by Western blot analysis; format: cell-based; details: filed as agonist
Target sequence in this assay (Q86WV6 whole entry): as the sequence (Q86WV6 whole entry, looked up, stated change not applied) above

Stimulator of interferon genes protein (Homo sapiens), Q86WV6 [UNDEFINED MUTATION], sequence (Q86WV6 whole entry, looked up, stated change not applied): as above
hERG, sequence (Q12809 whole entry): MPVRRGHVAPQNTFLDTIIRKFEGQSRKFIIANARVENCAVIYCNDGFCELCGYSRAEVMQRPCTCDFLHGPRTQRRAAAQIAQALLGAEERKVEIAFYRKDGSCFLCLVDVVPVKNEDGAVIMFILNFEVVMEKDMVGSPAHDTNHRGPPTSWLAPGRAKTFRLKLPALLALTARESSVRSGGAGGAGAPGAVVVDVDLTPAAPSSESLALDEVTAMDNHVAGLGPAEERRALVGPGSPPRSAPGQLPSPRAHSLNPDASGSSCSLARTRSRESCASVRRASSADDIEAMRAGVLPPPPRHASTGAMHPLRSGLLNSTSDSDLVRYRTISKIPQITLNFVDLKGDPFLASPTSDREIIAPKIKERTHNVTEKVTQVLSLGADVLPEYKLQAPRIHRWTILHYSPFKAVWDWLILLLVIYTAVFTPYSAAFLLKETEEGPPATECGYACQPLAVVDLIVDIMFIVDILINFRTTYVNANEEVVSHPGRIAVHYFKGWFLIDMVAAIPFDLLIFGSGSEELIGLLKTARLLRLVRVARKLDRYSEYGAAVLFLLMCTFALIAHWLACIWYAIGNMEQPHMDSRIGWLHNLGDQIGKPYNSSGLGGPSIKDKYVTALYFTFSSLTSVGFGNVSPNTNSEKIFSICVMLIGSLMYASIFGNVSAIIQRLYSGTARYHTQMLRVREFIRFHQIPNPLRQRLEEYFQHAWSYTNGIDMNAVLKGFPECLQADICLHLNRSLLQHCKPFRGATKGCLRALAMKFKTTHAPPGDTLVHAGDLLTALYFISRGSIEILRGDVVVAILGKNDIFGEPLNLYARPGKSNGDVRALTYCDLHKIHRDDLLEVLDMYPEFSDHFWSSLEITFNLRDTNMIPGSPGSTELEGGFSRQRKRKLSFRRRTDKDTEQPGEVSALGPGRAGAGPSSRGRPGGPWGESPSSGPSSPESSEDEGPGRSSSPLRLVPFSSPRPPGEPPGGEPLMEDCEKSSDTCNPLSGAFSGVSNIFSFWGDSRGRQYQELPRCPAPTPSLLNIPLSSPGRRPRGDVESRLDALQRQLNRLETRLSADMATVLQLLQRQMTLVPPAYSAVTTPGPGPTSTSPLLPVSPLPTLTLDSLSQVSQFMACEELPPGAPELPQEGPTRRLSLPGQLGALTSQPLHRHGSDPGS

CC[C@H](CC(=O)c1cc2cc(OC)c(OC)cc2[se]1)C(=O)O
solubility thermodynamic at 24 h [1]: 30 µg/mL (≈ 81.2 µM) | solubility thermodynamic at 24 h [2]: 1200 µg/mL (≈ 3250 µM) | logP [3]: 2.4 | Fu [4]: 0.07% | remaining at 24 h, 1 µM [5]: 98% | inhibition at 5 min, 10 µM [6]: -0.7% | Cmax [7]: 58.2 µg/mL | AUC(0-inf) [8]: 29400 ng·h/mL | half-life [9]: 1.6 h | Vdss [10]: 0.38 L/kg | Vd [11]: 0.26 L/kg | Activity [12]: Non-Toxic | Activity [13]: 100% | Activity [14]: 100% | Activity [15]: Active | Activity [16]: Active | Activity [17]: Active | Activity [18]: Active | Activity [19]: Active | Activity [20]: 94.2% | Activity [21]: 46.8% | ΔTm [22]: 7.4 °C | Kd [23]: 23 µM | ΔTm [24]: 30.3 °C | EC50 [25]: 5.19 µM | Activity [26]: Active | Activity [27]: Dde | Activity [28]: Dde | Activity [29]: Active

Source: ChEMBL document CHEMBL5214933, “Discovery of Selenium-Containing STING Agonists as Orally Available Antitumor Agents” (J Med Chem, 2022)
